Assay results taken from US20260028365A1 (BIOGEN MA INC., priority 2022, published 2026).
Where a name gives a salt, the structure may show the parent alone. Read-outs that look alike come from different tables or passages of the source.

Columns and labels:
JH2 domain of human Tyk2 = JH2 domain of human Tyk2 (Homo sapiens (Human), UniProt P29597); assay: JH2 Biochemical Assay (TR-FRET probe displacement); type: binding
Tyk2 = Tyk2 (Homo sapiens (Human), UniProt P29597); assay: pSTAT4 Cell Assay (MSD, NK92 cells); type: cell-based
Tyk2, sequence (P29597 whole entry, the tested form may be a part): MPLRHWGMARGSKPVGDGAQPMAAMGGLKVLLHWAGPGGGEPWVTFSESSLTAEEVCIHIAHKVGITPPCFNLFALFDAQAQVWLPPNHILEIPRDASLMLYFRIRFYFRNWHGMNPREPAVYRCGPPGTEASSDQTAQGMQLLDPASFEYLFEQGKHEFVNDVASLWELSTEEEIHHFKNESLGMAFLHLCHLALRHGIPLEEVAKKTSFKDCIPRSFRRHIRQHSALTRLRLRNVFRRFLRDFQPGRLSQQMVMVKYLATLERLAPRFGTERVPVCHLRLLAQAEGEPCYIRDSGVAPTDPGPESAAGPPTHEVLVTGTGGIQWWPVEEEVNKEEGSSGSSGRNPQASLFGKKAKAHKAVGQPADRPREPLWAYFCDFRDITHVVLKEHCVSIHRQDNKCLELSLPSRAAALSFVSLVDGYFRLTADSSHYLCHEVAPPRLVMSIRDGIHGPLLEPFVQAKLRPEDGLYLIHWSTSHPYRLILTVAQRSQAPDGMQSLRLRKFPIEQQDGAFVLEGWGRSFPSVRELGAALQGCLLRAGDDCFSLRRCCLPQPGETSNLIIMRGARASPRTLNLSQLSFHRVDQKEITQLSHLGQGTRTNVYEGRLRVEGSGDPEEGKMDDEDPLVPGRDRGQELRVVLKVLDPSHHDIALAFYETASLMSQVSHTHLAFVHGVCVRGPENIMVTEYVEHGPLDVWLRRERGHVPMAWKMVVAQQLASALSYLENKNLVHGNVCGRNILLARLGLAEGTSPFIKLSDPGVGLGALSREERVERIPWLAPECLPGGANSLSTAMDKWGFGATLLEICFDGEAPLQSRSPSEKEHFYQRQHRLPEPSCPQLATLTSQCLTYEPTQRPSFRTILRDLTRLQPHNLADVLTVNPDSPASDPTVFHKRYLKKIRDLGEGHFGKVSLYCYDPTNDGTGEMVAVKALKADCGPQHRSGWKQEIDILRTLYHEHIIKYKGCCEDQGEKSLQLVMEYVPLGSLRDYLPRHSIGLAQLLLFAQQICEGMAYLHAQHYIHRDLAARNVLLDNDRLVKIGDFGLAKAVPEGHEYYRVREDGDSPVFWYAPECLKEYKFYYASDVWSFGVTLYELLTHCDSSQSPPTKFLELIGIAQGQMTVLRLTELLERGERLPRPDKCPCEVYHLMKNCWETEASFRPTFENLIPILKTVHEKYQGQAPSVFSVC

[1] = JH2 domain of human Tyk2, TR-FRET probe displacement
[2] = TR-FRET probe displacement, JH2 domain of human Tyk2
[3] = TR-FRET probe displacement, JH2 domain

JH2 domain of human Tyk2, sequence (P29597 575-876): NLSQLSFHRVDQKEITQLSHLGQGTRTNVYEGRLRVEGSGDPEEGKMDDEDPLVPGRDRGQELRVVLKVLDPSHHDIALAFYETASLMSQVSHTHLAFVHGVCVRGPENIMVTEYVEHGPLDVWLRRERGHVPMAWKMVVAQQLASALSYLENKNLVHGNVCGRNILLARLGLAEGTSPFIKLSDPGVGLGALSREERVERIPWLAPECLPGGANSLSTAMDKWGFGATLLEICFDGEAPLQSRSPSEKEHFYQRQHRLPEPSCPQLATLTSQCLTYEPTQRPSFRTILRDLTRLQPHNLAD

Compound | IC50 (JH2 domain of human Tyk2; [1]) | IC50 (Tyk2; MSD) | IC50 (JH2 domain of human Tyk2; [2]) | IC50 (JH2 domain of human Tyk2; [3]) | IC50 (Tyk2)
CC(=O)Nc1cc(Nc2cc(C)nc(C(C)(F)F)n2)c(-c2nccc(C3CC3)n2)cn1 [Example 666, N-(5-(4-cyclopropylpyrimidin-2-yl)-4-((2-(1,1-difluoroethyl)-6-methylpyrimidin-4-yl)amino)pyridin-2-yl)acetamide] | ≤ 10 nM | 100 to 1000 nM | – | – | –
CC(=O)Nc1cc(Nc2cc(C)nc(C(C)(F)F)n2)c(OCC(F)F)cn1 [Example 24, N-(5-(2,2-difluoroethoxy)-4-((2-(1,1-difluoroethyl)-6-methylpyrimidin-4-yl)amino)pyridin-2-yl)acetamide] | – | 10 to 100 nM | ≤ 10 nM | – | –
COc1cc(-c2cnc(NC(C)=O)cc2Nc2cc(C)nc(C34COC(C3)C4)n2)ncn1 [Example 750, N-(4-((2-(2-oxabicyclo[2.1.1]hexan-4-yl)-6-methylpyrimidin-4-yl)amino)-5-(6-methoxypyrimidin-4-yl)pyridin-2-yl)acetamide] | – | – | – | ≤ 10 nM | 100 to 1000 nM
COc1nc(C)cc(-c2cnc(NC(C)=O)cc2Nc2cc(C)nc(C(C)(F)F)n2)n1 [Example 156, N-(4-((2-(1,1-difluoroethyl)-6-methylpyrimidin-4-yl)amino)-5-(2-methoxy-6-methylpyrimidin-4-yl)pyridin-2-yl)acetamide] | – | ≤ 10 nM | ≤ 10 nM | – | –
CC(=O)Nc1cc(Nc2cc(C)nc(C(C)(F)F)n2)c(-c2cnn(C)c2)cn1 [Example 812, N-(4-((2-(1,1-difluoroethyl)-6-methylpyrimidin-4-yl)amino)-5-(1-methyl-1H-pyrazol-4-yl)pyridin-2-yl)acetamide] | – | – | – | 10 to 100 nM | ≥ 1000 nM
CC(=O)Nc1cc(Nc2cc(C)nc(C(C)(F)F)n2)c([C@H]2CCCO2)cn1 (single isomer, unassigned) [Example 278, (R)-N-(4-((2-(1,1-difluoroethyl)-6-methylpyrimidin-4-yl)amino)-5-(tetrahydrofuran-2-yl)pyridin-2-yl)acetamide or (S)—N-(4-((2-(1,1-difluoroethyl)-6-methylpyrimidin-4-yl)amino)-5-(tetrahydrofuran-2-yl)pyridin-2-yl)acetamide] | – | ≥ 1000 nM | 10 to 100 nM | – | –
CCc1cc(Nc2cc(NC(C)=O)ncc2-c2ncn(C)n2)nc(C(C)(F)F)n1 [Example 166, N-(4-((2-(1,1-difluoroethyl)-6-ethylpyrimidin-4-yl)amino)-5-(1-methyl-1H-1,2,4-triazol-3-yl)pyridin-2-yl)acetamide] | – | 10 to 100 nM | ≤ 10 nM | – | –
COc1cc(-c2cnc(NC(C)=O)cc2Nc2cc(C)nc(C(C)(F)F)n2)ncn1 [Example 194, N-(4-((2-(1,1-difluoroethyl)-6-methylpyrimidin-4-yl)amino)-5-(6-methoxypyrimidin-4-yl)pyridin-2-yl)acetamide] | – | ≤ 10 nM | ≤ 10 nM | – | –
CC(=O)Nc1cc(Nc2ccnc(C(C)(F)F)n2)c(-c2cnc(COC(F)F)cn2)cn1 [Example 692, N-(4-((2-(1,1-difluoroethyl)pyrimidin-4-yl)amino)-5-(5-((difluoromethoxy)methyl)pyrazin-2-yl)pyridin-2-yl)acetamide] | ≤ 10 nM | 100 to 1000 nM | – | – | –
CC(=O)Nc1cc(Nc2cc(C)nc(C(C)(F)F)n2)c(-c2ccc(CN3CCOCC3)cn2)cn1 [Example 649, N-(4′-((2-(1,1-difluoroethyl)-6-methylpyrimidin-4-yl)amino)-5-(morpholinomethyl)-[2,3′-bipyridin]-6′-yl)acetamide] | ≤ 10 nM | ≤ 10 nM | – | – | –
CC(=O)Nc1cc(Nc2cc(C)nc(C(C)(F)F)n2)c(OCC2(F)COC2)cn1 [Example 483, N-(4-((2-(1,1-difluoroethyl)-6-methylpyrimidin-4-yl)amino)-5-((3-fluorooxetan-3-yl)methoxy)pyridin-2-yl)acetamide] | ≤ 10 nM | 10 to 100 nM | – | – | –
COc1cnc(NC(C)=O)cc1Nc1cc(-c2cnn(C(C)C)c2)nc(C(C)(F)F)n1 [Example 363, N-(4-((2-(1,1-difluoroethyl)-6-(1-isopropyl-1H-pyrazol-4-yl)pyrimidin-4-yl)amino)-5-methoxypyridin-2-yl)acetamide] | – | ≤ 10 nM | ≤ 10 nM | – | –
CCOc1cnc(NC(C)=O)cc1Nc1cc(OC2CC(F)C2)nc(C(C)(F)F)n1 (centres unmarked) [Example 457, N-(4-((2-(1,1-difluoroethyl)-6-(3-fluorocyclobutoxy)pyrimidin-4-yl)amino)-5-ethoxypyridin-2-yl)acetamide trifluoroacetate] | ≤ 10 nM | 10 to 100 nM | – | – | –
CC(=O)Nc1cc(Nc2cc(C)nc(C(C)(F)F)n2)c(OCc2c(C)ncnc2C)cn1 [Example 330, N-(4-((2-(1,1-difluoroethyl)-6-methylpyrimidin-4-yl)amino)-5-((4,6-dimethylpyrimidin-5-yl)methoxy)pyridin-2-yl)acetamide] | – | ≥ 1000 nM | 10 to 100 nM | – | –
CC(=O)Nc1cc(Nc2ccnc(C(C)(F)F)n2)c(-c2ccn(C)n2)cn1 [Example 202, N-(4-((2-(1,1-difluoroethyl)pyrimidin-4-yl)amino)-5-(1-methyl-1H-pyrazol-3-yl)pyridin-2-yl)acetamide] | – | ≤ 10 nM | ≤ 10 nM | – | –
COCCN(C)c1cncc(-c2cnc(NC(C)=O)cc2Nc2ccnc(C(C)(F)F)n2)n1 [Example 275, N-(4-((2-(1,1-difluoroethyl)pyrimidin-4-yl)amino)-5-(6-((2-methoxyethyl)(methyl)amino)pyrazin-2-yl)pyridin-2-yl)acetamide] | – | 100 to 1000 nM | ≤ 10 nM | – | –
COCc1cnc(-c2cnc(NC(C)=O)cc2Nc2cc(C)nc(C(C)(F)F)n2)nc1 [Example 672, N-(4-((2-(1,1-difluoroethyl)-6-methylpyrimidin-4-yl)amino)-5-(5-(methoxymethyl)pyrimidin-2-yl)pyridin-2-yl)acetamide] | ≤ 10 nM | ≤ 10 nM | – | – | –
CC(=O)Nc1cc(Nc2cc(C)nc(C(C)(F)F)n2)c(OC[C@@H]2CCN(C3CC3)C2)cn1 [Example 494, (R)-N-(5-((1-cyclopropylpyrrolidin-3-yl)methoxy)-4-((2-(1,1-difluoroethyl)-6-methylpyrimidin-4-yl)amino)pyridin-2-yl)acetamide] | ≤ 10 nM | 10 to 100 nM | – | – | –
CC(=O)Nc1cc(Nc2ccnc(C(C)(F)F)n2)c(-c2cncc(OC3COC3)n2)cn1 [Example 690, N-(4-((2-(1,1-difluoroethyl)pyrimidin-4-yl)amino)-5-(6-(oxetan-3-yloxy)pyrazin-2-yl)pyridin-2-yl)acetamide] | 10 to 100 nM | 10 to 100 nM | – | – | –
CCc1cc(Nc2cc(NC(C)=O)ncc2-c2ncc(F)cn2)nc(C(C)(F)F)n1 [Example 183, N-(4-((2-(1,1-difluoroethyl)-6-ethylpyrimidin-4-yl)amino)-5-(5-fluoropyrimidin-2-yl)pyridin-2-yl)acetamide] | – | 10 to 100 nM | ≤ 10 nM | – | –
CC(=O)Nc1cc(Nc2ccnc(C(C)(F)F)n2)c(-c2ccc(CN3CCCC3)cn2)cn1 [Example 878, N-(4′-((2-(1,1-difluoroethyl)pyrimidin-4-yl)amino)-5-(pyrrolidin-1-ylmethyl)-[2,3′-bipyridin]-6′-yl)acetamide] | – | – | – | ≤ 10 nM | ≤ 10 nM
CCc1cc(Nc2cc(NC(C)=O)ncc2-c2ncc(OC(F)F)cn2)nc(C(C)(F)F)n1 [Example 848, N-(4-((2-(1,1-difluoroethyl)-6-ethylpyrimidin-4-yl)amino)-5-(5-(difluoromethoxy)pyrimidin-2-yl)pyridin-2-yl)acetamide] | – | – | – | ≤ 10 nM | ≤ 10 nM
